From patent publication US10179355B2, “Bioremediation enhancing agents and methods of use” (JRW BIOREMEDIATION, LLC, priority 2007, dated 2019)

Assays:
[1] = test system: dechlorinating bacteria known to convert PCE to ethene; assay: Set A: Ladder of YM, PCE dechlorination microcosms (kinetics, Relative Rate, paired t-test); type: cell-based, Dehalococcoides and Dehalobacter spp.
From the text: (§1) Certain contaminated materials (or sites) may contain indigenous microbial communities that are sufficient for complete bioremediation of contaminants. For such sites, there is no need to add microbes unless the indigenous microbes are genetically deficient in achieving the desired clean-up goals. For those sites that are microbiologically limited, microorganisms may be added to the contaminated materials (or sites). In one embodiment, the inoculum may be a mixed culture of halo-respiring bacteria that have been enriched to reach an optimal cell density. These mixed cultures of halo-respiring bacteria may be typically obtained from sediment samples from rivers, streams or any waterways. More specifically, the inoculum used in the Examples was originated from a Sangamon River sediment sample (Lodge Park, Piatt County, Ill.) See, e.g., Brennan, R. A., Sanford, R. A. and Werth, C. J. (2006). “Biodegradation of Tetrachloroethene by Chitin Fermentation Products in a Continuous Flow Column System.” Journal of Environ. Engr., June 665-673. This culture had grown for several years on PCE, anaerobic basal salts medium, Wolfe's vitamin solution and various electron donors including lactate (1-2 millimolar (mM)), formate (4 mM) and chitin using the Volatile Interface Transfer Apparatus (VITA) reactor system at the University of Illinois. Brennan, R. A., and Sanford, R. A. (2002). “Continuous steady-state method using Tenax for delivering tetrachloroethene to chlororespiring bacteria.” Appl. Environ. Microbiol., 68(3), 1464-1467. […] Using 16S rRNA gene-specific primers, both Dehalococcoides and Dehalobacter spp. were detected. Quantitative real-time PCR has been used to determine that approximately 1.65×10^7 Dehalococcoides gene copies were present per ml of culture.
(§2) For purpose of this disclosure, each bottle may be started with a certain amount of PCE. At subsequent times each bottle may be sampled for the degradation daughter products of PCE, namely trichloroethene (TCE), cis-dichloroethene (DCE), vinyl chloride (VC) and ethene, etc. Trans-DCE and 1,1-DCE are also daughter products of PCE, but they may not be detectable under the conditions disclosed here.
(§3) The rate of degradation may be determined by calculating the number of pmoles of chloride ions removed from PCE and subsequently from the amounts of the daughter products generated. The calculation may be performed as follows: Chloride (μmoles)=[…]−4×PCE (μmoles)−3×TCE (pmoles)−2×DCE (μmoles)−VC (μmoles)
The alternative chloride calculation is: Chloride (μmoles)=TCE (μmoles)+2×DCE (μmoles)+3×VC (μmoles)+4×Ethene (μmoles)
(§4) Next, the dechlorination rate may be determined for each bottle at each time by dividing the Chloride generated by the time (days). The data may be then normalized to the lactate control by taking the ratio of Chloride Rate (pmoles/day) and the Lactate Control Chloride Rate (pmoles/day). This ratio is called Relative Rate and is dimensionless.
(§5) As shown in the Examples, a paired t-test has been conducted to calculate the probability that the Relative Rate of one group (i.e. with Nutrient) is greater than the other group (i.e. without Nutrient). The null hypothesis is that the underlying means of the two paired groups are equal. The Probability that one group has higher Relative Rates than the other group is shown in various tables in the Examples.
(§6) The following components were used in the system for bioremediating contaminated ground water microcosms in Examples 2-8: • 160 milliliter (ml) stoppered serum bottles • 100 ml of anaerobic culture medium, groundwater containing an excess of bioavailable phosphorus and nitrogen at 0.5 mM Phosphate and 1 mM ammonium degassed with a nitrogen sparge • Nominally 1 gram of limestone • 19.54 micromoles (pmoles) Perchloroethene (PCE) • An excess of various electron donors were utilized • 3 ml of inoculum containing dechlorinating bacteria known to convert PCE to ethene. […]

[2] = test system: dechlorinating bacteria known to convert PCE to ethene; assay: Set C: Nutrient Comparisons, PCE dechlorination microcosms (kinetics, Relative Rate); type: cell-based, Dehalococcoides and Dehalobacter spp.
From the text: as §1, §2, §3, §4, §5, §6

## CC(O)C(=O)[O-].[Na+] (stereo not shown) [Lactate Control, sodium lactate]
[1]
  Average Relative Rate: 1.00
[1]; 0 days
  Cl^− Rate ± s.d.: 0.00 ± 0.00 µmol
  Cl^− ± s.d.: 0.00 ± 0.00 µmol
  DCE ± s.d.: 0.00 ± 0.00 µmol
  Ethene ± s.d.: 0.00 ± 0.00 µmol
  PCE ± s.d.: 19.54 ± 0.00 µmol
  TCE ± s.d.: 0.00 ± 0.00 µmol
  VC ± s.d.: 0.00 ± 0.00 µmol
[1]; 14 days
  Cl^− Rate ± s.d.: 2.58 ± 0.17 µmol
  Cl^− ± s.d.: 36.18 ± 2.43 µmol
  DCE ± s.d.: 0.42 ± 0.03 µmol
  Ethene ± s.d.: 0.00 ± 0.00 µmol
  PCE ± s.d.: 8.45 ± 0.55 µmol
  TCE ± s.d.: 2.00 ± 0.04 µmol
  VC ± s.d.: 1.33 ± 0.41 µmol
[1]; 35 days
  Cl^− Rate ± s.d.: 1.33 ± 0.15 µmol
  Cl^− ± s.d.: 46.47 ± 5.25 µmol
  DCE ± s.d.: 1.60 ± 0.82 µmol
  Ethene ± s.d.: 0.33 ± 0.29 µmol
  PCE ± s.d.: 4.08 ± 0.81 µmol
  TCE ± s.d.: 2.77 ± 0.47 µmol
  VC ± s.d.: 3.86 ± 2.11 µmol
[1]; 53 days
  Cl^− Rate ± s.d.: 1.06 ± 0.06 µmol
  Cl^− ± s.d.: 56.17 ± 3.17 µmol
  DCE ± s.d.: 5.31 ± 1.00 µmol
  Ethene ± s.d.: 0.78 ± 0.79 µmol
  PCE ± s.d.: 0.33 ± 0.27 µmol
  TCE ± s.d.: 0.52 ± 0.47 µmol
  VC ± s.d.: 8.52 ± 6.24 µmol
[1]; bottle 1, 14 days
  Relative Rate: 0.92
[1]; bottle 1, 35 days
  Relative Rate: 1.11
[1]; bottle 1, 53 days
  Relative Rate: 0.96
[1]; bottle 2, 14 days
  Relative Rate: 1.02
[1]; bottle 2, 35 days
  Relative Rate: 1.00
[1]; bottle 2, 53 days
  Relative Rate: 1.06
[1]; bottle 3, 14 days
  Relative Rate: 1.05
[1]; bottle 3, 35 days
  Relative Rate: 0.89
[1]; bottle 3, 53 days
  Relative Rate: 0.98
[2]
  Average Relative Rate: 1.00
[2]; 0 days
  Cl^− Rate ± s.d.: 0.00 ± 0.00 µmol
  Cl^− ± s.d.: 0.00 ± 0.00 µmol
  DCE ± s.d.: 0.00 ± 0.00 µmol
  Ethene ± s.d.: 0.00 ± 0.00 µmol
  PCE ± s.d.: 19.54 ± 0.00 µmol
  TCE ± s.d.: 0.00 ± 0.00 µmol
  VC ± s.d.: 0.00 ± 0.00 µmol
[2]; 21 days
  Cl^− Rate ± s.d.: 2.43 ± 0.13 µmol
  Cl^− ± s.d.: 51.01 ± 2.69 µmol
  DCE ± s.d.: 5.05 ± 0.62 µmol
  Ethene ± s.d.: 0.09 ± 0.02 µmol
  PCE ± s.d.: 0.66 ± 0.52 µmol
  TCE ± s.d.: 1.20 ± 1.01 µmol
  VC ± s.d.: 10.83 ± 1.56 µmol
[2]; 35 days
  Cl^− Rate ± s.d.: 1.36 ± 0.03 µmol
  Cl^− ± s.d.: 47.71 ± 1.16 µmol
  DCE ± s.d.: 2.02 ± 1.88 µmol
  Ethene ± s.d.: 0.54 ± 0.29 µmol
  PCE ± s.d.: 0.00 ± 0.00 µmol
  TCE ± s.d.: 0.00 ± 0.00 µmol
  VC ± s.d.: 26.41 ± 2.65 µmol
[2]; 49 days
  Cl^− Rate ± s.d.: 1.03 ± 0.01 µmol
  Cl^− ± s.d.: 50.42 ± 0.27 µmol
  DCE ± s.d.: 0.00 ± 0.00 µmol
  Ethene ± s.d.: 3.79 ± 1.31 µmol
  PCE ± s.d.: 0.00 ± 0.00 µmol
  TCE ± s.d.: 0.00 ± 0.00 µmol
  VC ± s.d.: 27.74 ± 0.27 µmol
[2]; bottle 1, 21 days
  Relative Rate: 1.06
[2]; bottle 1, 35 days
  Relative Rate: 1.02
[2]; bottle 1, 49 days
  Relative Rate: 1.00
[2]; bottle 2, 21 days
  Relative Rate: 0.99
[2]; bottle 2, 35 days
  Relative Rate: 0.97
[2]; bottle 2, 49 days
  Relative Rate: 0.99
[2]; bottle 3, 21 days
  Relative Rate: 0.95
[2]; bottle 3, 35 days
  Relative Rate: 1.00
[2]; bottle 3, 49 days
  Relative Rate: 1.01
